From patent publication US20210369710A1, “MODULATORS OF MYC FAMILY PROTO-ONCOGENE PROTEIN” (Nalo Therapeutics, priority 2019, published 2021)

Legend:
MycC Protein = molecular target: T1, MycC Protein (Homo sapiens, UniProt P01106); assay: Degradation of MycC protein, Western blot band density in cells; assay type: cell-based; details: HL-60 or SKNBE2 cells; 6 uL of compound (1 mM) added to 3 mL cells; 6 hours; Western blot band density (ImageJ)
T1 construct: endogenous in cells; host or cells: HL-60 or SKNBE2
T1 sequence (P01106 whole entry): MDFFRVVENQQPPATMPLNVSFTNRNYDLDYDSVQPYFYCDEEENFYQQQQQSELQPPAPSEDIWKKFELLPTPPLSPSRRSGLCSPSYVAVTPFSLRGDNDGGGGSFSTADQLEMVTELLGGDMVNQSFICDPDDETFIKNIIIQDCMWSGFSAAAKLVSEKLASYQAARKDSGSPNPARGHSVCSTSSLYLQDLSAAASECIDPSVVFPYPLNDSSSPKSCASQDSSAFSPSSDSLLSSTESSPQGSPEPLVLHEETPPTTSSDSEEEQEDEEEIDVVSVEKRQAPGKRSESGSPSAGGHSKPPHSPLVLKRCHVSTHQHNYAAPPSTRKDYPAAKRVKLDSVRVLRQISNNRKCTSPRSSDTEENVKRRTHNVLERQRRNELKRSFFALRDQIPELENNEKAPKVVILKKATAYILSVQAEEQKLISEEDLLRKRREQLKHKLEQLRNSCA
How it was run: (§1)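 HL-60 leukemia or SKNBE2 neuroblastoma cells (3×10^6 per well, passages below 40) were exposed for 6 h to compound added from a 1 mM stock. RIPA lysates (25-30 ug protein) were run on SDS-PAGE and immunoblotted for c-Myc or MycN. Band density was quantified from the western images.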

MycN Protein = molecular target: T2, MycN Protein (Homo sapiens, UniProt P04198); assay: Degradation of MycN protein, Western blot band density in cells; assay type: cell-based; details: HL-60 or SKNBE2 cells; 6 uL of compound (1 mM) added to 3 mL cells; 6 hours; Western blot band density (ImageJ)
T2 construct: endogenous in cells; host or cells: HL-60 or SKNBE2
T2 sequence (P04198 1-464): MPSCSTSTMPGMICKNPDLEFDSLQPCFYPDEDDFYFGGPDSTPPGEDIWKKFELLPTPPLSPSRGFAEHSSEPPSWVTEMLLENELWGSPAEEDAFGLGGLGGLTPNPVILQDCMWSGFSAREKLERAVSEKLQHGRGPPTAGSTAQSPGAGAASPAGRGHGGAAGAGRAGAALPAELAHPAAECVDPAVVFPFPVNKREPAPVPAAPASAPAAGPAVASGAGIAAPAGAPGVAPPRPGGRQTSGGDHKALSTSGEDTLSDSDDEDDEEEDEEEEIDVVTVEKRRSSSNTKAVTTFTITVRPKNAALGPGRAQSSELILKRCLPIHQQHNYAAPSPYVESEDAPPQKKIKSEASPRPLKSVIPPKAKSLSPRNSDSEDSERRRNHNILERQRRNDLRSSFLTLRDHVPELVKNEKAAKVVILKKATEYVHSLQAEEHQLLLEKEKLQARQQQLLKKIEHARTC
How it was run: as §1

Compound: O=C(NC1CC2(COC2)C1)N[C@H]1CC[C@H](Nc2nccc(Nc3cc(C4CCCC4)[nH]n3)n2)CC1 [Compound 47]
- Dmax at 2 µM (MycC Protein): < 20%
- Dmax at 2 µM (MycN Protein): < 20%

Compound: O=C(NC1CCS(=O)(=O)CC1)N[C@H]1CC[C@H](Nc2nccc(Nc3cc(C4CCCC4)[nH]n3)n2)CC1 [Compound 24]
- Dmax at 2 µM (MycC Protein): 20 to 49%
- Dmax at 2 µM (MycN Protein): < 20%

Compound: O=C(NC1CCC(Nc2nccc(Nc3cc(C4CCCC4)[nH]n3)n2)CC1)NC1CCN(C2CC2)C1 [Compound 79, 1-((1R,4R)-4-((4-((5-cyclopentyl-1H-pyrazol-3-yl)amino)pyrimidin-2-yl)amino)cyclohexyl)-3-(1-cyclopropylpyrrolidin-3-yl)urea]
- Dmax at 2 µM (MycC Protein): 20 to 49%
- Dmax at 2 µM (MycN Protein): < 20%

Compound: CN(C(=O)N[C@H]1CC[C@H](N(C)c2nccc(Nc3cc(C4CCCC4)[nH]n3)n2)CC1)C1Cc2ccc(C#N)cc2C1 (stereo partly drawn) [Compound 153, 1-(5-cyano-2,3-dihydro-1H-inden-2-yl)-3-((1R,4R)-4-((4-((5-cyclopentyl-1H-pyrazol-3-yl)amino)pyrimidin-2-yl)(methyl)amino)cyclohexyl)-1-methylurea]
- Dmax at 2 µM (MycC Protein): 50 to 79%
- Dmax at 2 µM (MycN Protein): 20 to 49%

Compound: O=C(NC1CCN(Cc2ccccn2)CC1)N[C@H]1CC[C@H](Nc2nccc(Nc3cc(C4CCOC4)[nH]n3)n2)CC1 (stereo partly drawn) [Compound 74, 1-(1-(pyridin-2-ylmethyl)piperidin-4-yl)-3-((1R,4R)-4-((4-((5-(tetrahydrofuran-3-yl)-1H-pyrazol-3-yl)amino)pyrimidin-2-yl)amino)cyclohexyl)urea]
- Dmax at 2 µM (MycC Protein): < 20%
- Dmax at 2 µM (MycN Protein): 20 to 49%

Compound: N#Cc1ccc2c(c1)CC(NC(=O)N[C@H]1CC[C@H](Nc3nccc(Nc4cc(C5CCCC5)[nH]n4)n3)CC1)C2 (mixture of isomers) [Compound 11 (Racemic), 1-(5-cyano-2,3-dihydro-1H-inden-2-yl)-3-((1R,4R)-4-((4-((5-cyclopentyl-1H-pyrazol-3-yl)amino)pyrimidin-2-yl)amino)cyclohexyl)urea]
- % Degradation of MycC (MycC Protein): **** (****: degradation 80-100%)
- % Degradation of MycN (MycN Protein): **** (****: degradation 80-100%)

Compound: CN(c1nccc(Nc2cc(C3CCCC3)[nH]n2)n1)C1CCC(NC(=O)N[C@H]2CCC[C@@H](C(F)(F)F)C2)CC1 (stereo partly drawn) [Compound 121 (Fraction 1), 1-((1R,4S)-4-((4-((5-cyclopentyl-1H-pyrazol-3-yl)amino)pyrimidin-2-yl)(methyl)amino)cyclohexyl)-3-((1S,3R)-3-(trifluoromethyl)cyclohexyl)urea]
- % Degradation of MycC (MycC Protein): *** (***: degradation 50-79%)
- % Degradation of MycN (MycN Protein): *** (***: degradation 50-79%)

Compound: Cc1nc(-c2ccc3c(c2)CC(NC(=O)N[C@H]2CC[C@H](Nc4nccc(Nc5cc(C6CCCC6)[nH]n5)n4)CC2)C3)no1 (stereo partly drawn) [Compound 20, 1-((1R,4R)-4-((4-((5-cyclopentyl-1H-pyrazol-3-yl)amino)pyrimidin-2-yl)amino)cyclohexyl)-3-(5-(5-methyl-1,2,4-oxadiazol-3-yl)-2,3-dihydro-1H-inden-2-yl)urea]
- Dmax at 2 µM (MycC Protein): 80 to 100%
- Dmax at 2 µM (MycN Protein): 80 to 100%

Compound: CN(c1nccc(Nc2cc(C3CC4(CC4)C3)[nH]n2)n1)[C@H]1CC[C@H](NC(=O)NC2Cc3ccc(C#N)cc3C2)CC1 (stereo partly drawn) [Compound 148, 1-(5-cyano-2,3-dihydro-1H-inden-2-yl)-3-((1R,4R)-4-(methyl(4-((5-(spiro[2.3]hexan-5-yl)-1H-pyrazol-3-yl)amino)pyrimidin-2-yl)amino)cyclohexyl)urea]
- Dmax at 2 µM (MycC Protein): 50 to 79%
- Dmax at 2 µM (MycN Protein): 80 to 100%

Compound: O=C(NC1CCC(Nc2nccc(Nc3cc(C4CCCC4)[nH]n3)n2)CC1)NC1CCN(C2CC2)CC1 (centres unmarked) [Compound 63]
- Dmax at 2 µM (MycC Protein): 20 to 49%
- Dmax at 2 µM (MycN Protein): 50 to 79%

Compound: COCCN(c1nccc(Nc2cc(C3CC3)[nH]n2)n1)C1CCC(NC(=O)NC2Cc3ccc(C#N)cc3C2)CC1 [Compound 152, 1-(5-cyano-2,3-dihydro-1H-inden-2-yl)-3-((1R,4R)-4-((4-((5-cyclopropyl-1H-pyrazol-3-yl)amino)pyrimidin-2-yl)(2-methoxyethyl)amino)cyclohexyl)urea]
- % Degradation of MycC (MycC Protein): **** (****: degradation 80-100%)
- % Degradation of MycN (MycN Protein): **** (****: degradation 80-100%)

Compound: Cc1cc(Nc2ccnc(N[C@H]3CC[C@H](NC(=O)N[C@H]4CC[C@H](S(C)(=O)=O)CC4)CC3)n2)n[nH]1 [Compound 32]
- Dmax at 2 µM (MycC Protein): < 20%
- Dmax at 2 µM (MycN Protein): < 20%

Compound: CN(c1nccc(Nc2cc(C3CCCC3)[nH]n2)n1)C1CCC(NC(=O)NC2Cc3ccc(C#N)cc3C2)CC1 [Compound 16 (Fraction 1), 1-(5-cyano-2,3-dihydro-1H-inden-2-yl)-3-((1R,4R)-4-((4-((5-cyclopentyl-1H-pyrazol-3-yl)amino)pyrimidin-2-yl)(methyl)amino)cyclohexyl)urea]
- % Degradation of MycC (MycC Protein): **** (****: degradation 80-100%)
- % Degradation of MycN (MycN Protein): *** (***: degradation 50-79%)

Compound: O=C(NC1CCN(Cc2ncccn2)CC1)N[C@H]1CC[C@H](Nc2nccc(Nc3cc(C4CCCC4)[nH]n3)n2)CC1 [Compound 75]
- Dmax at 2 µM (MycC Protein): 20 to 49%
- Dmax at 2 µM (MycN Protein): < 20%

Compound: N#Cc1cccc(NC(=N)N[C@H]2CC[C@H](Nc3nccc(Nc4cc(C5CCCC5)[nH]n4)n3)CC2)c1 [Compound 87, 1-(3-cyanophenyl)-3-((1R,4R)-4-((4-((5-cyclopentyl-1H-pyrazol-3-yl)amino)pyrimidin-2-yl)amino)cyclohexyl)guanidine]
- % Degradation of MycC (MycC Protein): ** (**: degradation 20-49%)
- % Degradation of MycN (MycN Protein): ** (**: degradation 20-49%)

Compound: Cc1cc(Nc2ccnc(N[C@H]3CC[C@H](NC(=O)N[C@@H]4CCC[C@@H](C(F)(F)F)C4)CC3)n2)n[nH]1 [Compound 120]
- Dmax at 2 µM (MycC Protein): < 20%
- Dmax at 2 µM (MycN Protein): < 20%

Compound: N#Cc1cccc([C@H]2C[C@H](NC(=O)N[C@H]3CC[C@H](Nc4nccc(Nc5cc(C6CCOC6)[nH]n5)n4)CC3)C2)c1 (some centres unmarked) [Compound 53]
- Dmax at 2 µM (MycC Protein): < 20%
- Dmax at 2 µM (MycN Protein): < 20%

Compound: CS(=O)(=O)[C@H]1C[C@H](NC(=O)N[C@H]2CC[C@H](Nc3nccc(Nc4cc(C5CCCC5)[nH]n4)n3)CC2)C1 [Compound 57]
- Dmax at 2 µM (MycC Protein): 50 to 79%
- Dmax at 2 µM (MycN Protein): < 20%

Compound: CC(=O)N1CCC(NC(=O)N[C@H]2CC[C@H](Nc3nccc(Nc4cc(C5CCCC5)[nH]n4)n3)CC2)CC1 [Compound 2, 1-(1-acetylpiperidin-4-yl)-3-((1R,4R)-4-((4-((5-cyclopentyl-1H-pyrazol-3-yl)amino)pyrimidin-2-yl)amino)cyclohexyl)urea]
- Dmax at 2 µM (MycC Protein): < 20%
- Dmax at 2 µM (MycN Protein): 20 to 49%
